Laboratory results as given in paper PMC8270334, “Design, Sustainable Synthesis and Biological Evaluation of a Novel Dual α2A/5-HT7 Receptor Antagonist with Antidepressant-Like Properties” (Molecules, 2021).

Legend:
human 5-HT7b receptor = target: T1, human 5-HT7b receptor (Homo sapiens, UniProt P34969); experiment: radioligand binding, [3H]-5-CT displacement at 5-HT7R in HEK293 cells; settings: read-out: Ki [nM] ± SEM 5-HT7
T1 construct: expressed in transfected cells; host or cells: HEK293
Description: (§1) All experiments were performed using HEK293 cells stably expressing human 5-HT1A, 5-HT6, 5-HT7b, and D2L receptors or CHO-K1 cells with a plasmid containing the human 5-HT2A receptor coding sequence (PerkinElmer, Waltham, MA, USA), according to previously reported procedures. Cells were cultured in 150 cm^2 flasks and, after reaching a 90% confluence, were washed with PBS and the centrifugated (200 g) in PBS containing 0.1 mM EDTA and 1 mM dithiothreitol. Cell pellets were subsequently homogenized (in Ultra Turrax tissue homogenizer) and centrifugated twice (35,000× g for 15 min at 4 °C), with 15 min incubation at 37 °C between the centrifugations. All assays were incubated in dedicated buffers and in a total volume of 200 µL in 96-well microtitre plates for 1 h at 37 °C, except for 5-HT1AR and 5-HT2AR that was incubated for 1 h at room temperature. The process of equilibration is terminated by rapid filtration through Unifilter-96 (PerkinElmer) plates with a 96-well cell harvester and radioactivity retained on the filters was quantified on a Microbeta plate reader (PerkinElmer, USA). For displacement studies, the following assay samples containing the proper radioligand were used: 2.5 nM [^3H]-8-OH-DPAT (PerkinElmer, #NET929001MC) for 5-HT1AR; 1 nM [^3H]-ketanserin (PerkinElmer, #NET791250UC) for 5-HT2AR; 2 nM [^3H]-LSD (PerkinElmer, #NET638250UC) for 5-HT6R; and 0.8 nM [^3H]-5-CT (PerkinElmer, #NET1188U100UC) for 5-HT7R or 2.5 nM [^3H]-raclopride (PerkinElmer, #NET975001MC) for D2LR. Non-specific binding was determined using 10 μM 5-HT for 5-HT1AR and 5-HT7R, 20 μM mianserin for 5-HT2AR, 10 μM methiothepine for 5-HT6R, and 10 μM haloperidol for D2LR. […] Results were expressed as means of at least three separate experiments.

human 5-HT1A receptor = target: T2, human 5-HT1A receptor (Homo sapiens, UniProt P08908); experiment: radioligand binding, [3H]-8-OH-DPAT displacement at 5-HT1AR in HEK293 cells; settings: HEK-293 cells, ± SEM
T2 construct: expressed in transfected cells; host or cells: HEK293
T2 sequence (P08908 1-422): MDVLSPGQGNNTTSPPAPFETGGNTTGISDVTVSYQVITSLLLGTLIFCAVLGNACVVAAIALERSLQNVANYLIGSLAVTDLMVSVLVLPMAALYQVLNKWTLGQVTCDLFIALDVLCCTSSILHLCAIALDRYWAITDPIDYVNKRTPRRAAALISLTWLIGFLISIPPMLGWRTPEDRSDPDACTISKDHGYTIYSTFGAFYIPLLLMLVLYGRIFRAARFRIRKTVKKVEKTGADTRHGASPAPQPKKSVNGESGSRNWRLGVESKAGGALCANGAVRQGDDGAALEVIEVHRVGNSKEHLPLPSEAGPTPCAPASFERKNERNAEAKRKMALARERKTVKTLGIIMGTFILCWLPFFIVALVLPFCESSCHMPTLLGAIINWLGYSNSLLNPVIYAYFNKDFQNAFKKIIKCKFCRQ
Description: as §1

human 5-HT6 receptor = target: T3, human 5-HT6 receptor (Homo sapiens, UniProt P50406); experiment: radioligand binding, [3H]-LSD displacement at 5-HT6R in HEK293 cells; settings: HEK-293 cells, ± SEM
T3 construct: expressed in transfected cells; host or cells: HEK293
Description: as §1

α2B-adrenergic receptor = target: T4, α2B-adrenergic receptor (Homo sapiens, UniProt P18089); experiment: intrinsic activity (antagonist) assay, α2B AequoScreen cell line, aequorin calcium mobilization; assay type: cell-based; settings: AequoScreen cells, ± SEM, two independent experiments
T4 sequence (P18089 1-450): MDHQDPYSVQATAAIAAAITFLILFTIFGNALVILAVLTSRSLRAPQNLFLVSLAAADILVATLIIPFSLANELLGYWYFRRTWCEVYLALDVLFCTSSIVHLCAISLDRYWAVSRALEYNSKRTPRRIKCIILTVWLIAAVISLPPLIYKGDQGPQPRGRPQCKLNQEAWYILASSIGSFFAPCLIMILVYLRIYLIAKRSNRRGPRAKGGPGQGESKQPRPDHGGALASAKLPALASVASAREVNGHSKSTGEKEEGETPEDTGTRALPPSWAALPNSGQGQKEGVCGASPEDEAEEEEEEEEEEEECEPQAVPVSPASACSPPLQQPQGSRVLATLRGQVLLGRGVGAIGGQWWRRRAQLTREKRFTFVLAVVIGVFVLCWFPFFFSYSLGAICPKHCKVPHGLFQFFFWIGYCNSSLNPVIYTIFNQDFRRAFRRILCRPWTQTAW
Description: The intrinsic activity assays for the α2B-adrenergic receptor were assessed by luminescence detection of calcium mobilization using the recombinant expressed jellyfish photoprotein, aequorin. Measurements were performed with adrenergic α2B AequoScreen cell line (PekinElmer). The cell density in 96-well format measurements was 5000 cells per well. Cell harvesting, coelenterazine h (Invitrogen, cat. no. C 6780) loading and preparation were done according to instructions presented in the AequoScreen Starter Kit Manual (PerkinElmer). Compound concentration series (50 μL/well) were diluted in 0.1% BSA (Intergen) containing assay buffer (D-MEM/F-12, Invitrogen cat. no. 11039) and prepared in white ½ Area Plate–96 well microplates (PerkinElmer,). The cell suspension was dispensed on the ligands using the POLARstar optima reader injectors. For the antagonist assay, cells were injected (50 μL) into the assay plate with antagonists (50 μL) using the POLARstar optima reader. The antagonist dilution series with four replicates were prepared as instructed in the AequoScreen Starter Kit Manual at the concentrations from 10^–11 to 10^–6 M/L. The agonist used for […] was Oxymetazoline (Sigma, cat. no. O2378), which at a single concentration was injected (50 μL, final concentration EC80) on the preincubated (15–20 min) mixture of cells and antagonist, and the emitted light was recorded for 20 s.

Albino Swiss mice = experiment: spontaneous locomotor activity; assay type: in vivo; settings: ip
Description: Adult male Albino Swiss mice (CD-1, 8 weeks old, 25–30 g: Jagiellonian University Medical College, Krakow, Poland) were used in the study. Animals were housed in groups of 8 in a transparent plastic cage (382 × 220 × 150 mm) at room temperature (22 ± 2 °C), on a 12 h light/dark cycle with ad libitum access to food and water. Mice were handled for one week before starting the experimental procedures. The separate groups of animals were used in the forced swim test and in the locomotor studies. All studies were approved by the Institutional Animal Care and Ethics Committee of the Jagiellonian University (approval no.: 80/2015).
Tested compounds were dissolved with 1% Tween 80. […] The control animals were given ip injections of the 2% DMSO in 1% Tween 80 (vehicle). The volume of vehicle or drug solutions was 10 mL/kg.
Locomotor activity was recorded with an Opto M3 multichannel activity monitor, photoresistor actometers connected to a counter for the recording of light-beam interruptions (MultiDevice Software v1.3, Columbus Instruments, Columbus, OH, USA). The mice, after being placed into the cages individually, had their activity evaluated between the 2nd and the 6th minute. The chosen time period corresponded with the time interval considered in the FST. Spontaneous locomotor activity was evaluated as the distance travelled plus the movements of climbing by animals.

[1] = doses effective in the FST (6: 4, 8 mg/kg; mirtazapine: 16 mg/kg)

T3 sequence (P50406 whole entry): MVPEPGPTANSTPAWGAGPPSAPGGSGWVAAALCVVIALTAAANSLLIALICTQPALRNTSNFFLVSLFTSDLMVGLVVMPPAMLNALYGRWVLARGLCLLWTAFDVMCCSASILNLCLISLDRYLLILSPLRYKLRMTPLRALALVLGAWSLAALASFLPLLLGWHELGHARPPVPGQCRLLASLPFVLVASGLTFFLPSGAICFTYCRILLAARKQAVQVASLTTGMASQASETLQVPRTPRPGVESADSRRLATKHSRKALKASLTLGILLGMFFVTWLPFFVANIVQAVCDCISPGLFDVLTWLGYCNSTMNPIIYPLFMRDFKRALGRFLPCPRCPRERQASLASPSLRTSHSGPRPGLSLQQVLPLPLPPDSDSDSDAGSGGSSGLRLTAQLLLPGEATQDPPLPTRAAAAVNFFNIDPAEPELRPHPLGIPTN
T1 sequence (P34969 1-432): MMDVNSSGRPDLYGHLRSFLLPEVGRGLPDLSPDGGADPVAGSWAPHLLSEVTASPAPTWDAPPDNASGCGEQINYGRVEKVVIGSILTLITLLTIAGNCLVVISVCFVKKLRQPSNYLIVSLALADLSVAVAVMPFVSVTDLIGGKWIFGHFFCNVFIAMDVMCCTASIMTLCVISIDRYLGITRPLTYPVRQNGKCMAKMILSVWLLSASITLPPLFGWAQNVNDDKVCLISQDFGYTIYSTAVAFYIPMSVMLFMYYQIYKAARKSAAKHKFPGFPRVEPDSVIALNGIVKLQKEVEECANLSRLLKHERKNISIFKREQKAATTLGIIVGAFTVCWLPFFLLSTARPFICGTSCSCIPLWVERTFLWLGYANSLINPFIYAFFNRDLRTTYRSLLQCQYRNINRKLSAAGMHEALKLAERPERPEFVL

Row | SMILES | Ki (human 5-HT7b receptor) [nM] | Ki (human 5-HT1A receptor) [nM] | Ki (human 5-HT6 receptor) [nM] | Kb (α2B-adrenergic receptor) [nM] | influence on spontaneous locomotor activity (sedation) (Albino Swiss mice; [1]) | influence on spontaneous locomotor activity (sedation) (Albino Swiss mice; 1 mg/kg) | influence on spontaneous locomotor activity (sedation) (Albino Swiss mice; higher doses (above 1 mg/kg))
1 | CC1(C)Cc2cccc(OCCN3CCC(NS(=O)(=O)c4ccc(F)cc4)CC3)c2O1 [Compound 6, 4-Fluoro-N-{1-[2-(2,2-dimethyl-2,3-dihydrobenzofuran-7-yloxy)ethyl]piperidin-4-yl} benzenesulfonamide] | 35 ± 22 | 221 ± 25 | 839 ± 70 | 103 ± 25 | induced sedation |  | 
2 | CC1(C)Cc2cccc(OCCN3CCC(NS(=O)(=O)c4cc(Cl)ccc4F)CC3)c2O1 [Compound 8, 5-Chloro-2-fluoro-N-{1-[2-(2,2-dimethyl-2,3-dihydrobenzofuran-7-yloxy)ethyl]piperidin-4-yl}benzenesulfonamide] | 30 ± 11 | 260 ± 29 | 873 ± 91 | 142 ± 31 | no influence on the spontaneous locomotor activity |  | 
3 | CC1(C)Cc2cccc(OCCN3CCC(NS(=O)(=O)c4cncc5ccccc45)CC3)c2O1 [Compound 13, 4-Isoquinoline-N-{1-[2-(2,2-dimethyl-2,3-dihydrobenzofuran-7-yloxy)ethyl]piperidin-4-yl}sulfonamide] | 91 ± 25 | 260 ± 18 | 1120 ± 114 | 27 ± 13 |  | without affecting locomotor activity | caused sedation
